Counter-ions that a name gives are not always drawn.

The source of these data is US20070032533A1, “Nitric oxide enhancing angiotensin II antagonist compounds, compositions and methods of use” (NitroMed, Inc., priority 2005, published 2007).

Series [1] addresses T1, Human angiotensin II type 1 receptor (Homo sapiens, UniProt P30556).
T1 construct: Cerep, Seattle, Wash; (contract laboratory that ran the assay)
T1 sequence (P30556 1-359): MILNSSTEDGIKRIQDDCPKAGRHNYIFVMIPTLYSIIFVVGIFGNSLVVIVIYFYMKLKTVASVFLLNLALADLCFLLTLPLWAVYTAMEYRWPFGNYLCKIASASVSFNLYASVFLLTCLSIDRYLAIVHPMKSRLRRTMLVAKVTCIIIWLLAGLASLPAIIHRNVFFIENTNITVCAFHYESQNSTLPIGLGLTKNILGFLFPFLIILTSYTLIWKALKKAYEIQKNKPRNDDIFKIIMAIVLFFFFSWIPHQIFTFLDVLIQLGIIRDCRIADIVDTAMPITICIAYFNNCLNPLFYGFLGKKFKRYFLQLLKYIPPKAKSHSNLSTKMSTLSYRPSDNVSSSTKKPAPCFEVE
The series can be described thus: Human angiotensin II type 1 receptor binding assay. The note with it: for inhibition at 0.1 µM / AT1 Binding Human % Inhibition at 100 nM: percent inhibition of control specific binding at 100 nM test compound; for inhibition at 0.1 µM: read-out: AT1 Binding Human % Inhibition at 100 nM. The protocol:
Human Angiotensin II Type 1 Receptor Binding Assay
The Human angiotensin II type 1 receptor binding assay was performed by Cerep, Seattle, Wash., using the procedure described in Bergsma et al; Biochem. Biophys. Res. Commun., 183: 989-995 (1992).

In general, melting point refers to the temperature of the solid-liquid transition. Usually inhibition stands for the relative decrease from the control value, in per cent. `CCCCC(=O)N(Cc1ccc(-c2ccccc2-c2nnn[nH]2)cc1)[C@H](C(=O)N1CCC(CO[N+](=O)[O-])CC1)C(C)C` [Example 10, Pentanamide, N-[(1S)-2-methyl-1-[[4-[(nitrooxy)methyl]-1-piperidinyl]carbonyl]propyl]-N-[[2′-(1H-tetrazol-5-yl) [1,1′-biphenyl]-4-yl]methyl]] gave a melting point of 86 to 88 °C. In addition, the inhibition at 0.1 µM in series [1] was determined as 22%.
Consider `CC(C)[C@@H](C(=O)O)N(Cc1ccc(-c2ccccc2-c2nnn[nH]2)cc1)C(=O)c1cccc(CO[N+](=O)[O-])c1` [Example 3b, L-valine, N-[3-[(nitrooxy)methyl]benzoyl]-N-[[2′-(1H-tetrazol-5-yl)[1,1′-biphenyl]-4-yl]methyl]], for which the melting point was 151 °C (dec.). The inhibition at 0.1 µM in series [1] came to 5%.
As to `CCc1nc2c(C)cc(C)nc2n1Cc1ccc(-c2ccccc2S(=O)(=O)NC(=O)c2ccccc2)cc1` [MK 996, reference compound], the “AT1 Binding Human % Inhibition at 100 nM” value in series [1] is on record as 91%.
In turn, `CCCCC(=O)N(Cc1ccc(-c2ccccc2-c2nnn[nH]2)cc1)[C@H](C(=O)N(C)CCO[N+](=O)[O-])C(C)C` [Example 9] registered a melting point of 86 to 89 °C. Besides, in series [1], the inhibition at 0.1 µM was found to be 8%.
The matching figures for `CCc1nc2c(C)cc(C)nc2n1Cc1ccc(-c2ccccc2S(=O)(=O)NC(=O)c2cccc(CO[N+](=O)[O-])c2)cc1` [Example 13, Benzamide, N-[[4′-[(2-ethyl-5,7-dimethyl-3H-imidazo[4,5-b]pyridin-3-yl)methyl][1,1′-biphenyl]-2-yl]sulfonyl]-3-[(nitrooxy)methyl]]: 123 °C (dec.) and 73%.
In the case of `CCc1nc2c(C)cc(C)nc2n1Cc1ccc(-c2ccccc2S(=O)(=O)NC(=O)C2=CC(C)(C)N([O])C2(C)C)cc1` [Example 12, 1H-Pyrrol-1-yloxy, 3-[[[[4′-[(2-ethyl-5,7-dimethyl-3H-imidazo[4,5-b]pyridin-3-yl)methyl][1,1′-biphenyl]-2-yl]sulfonyl]amino]carbonyl]-2,5-dihydro-2,2,5,5-tetramethyl], the “AT1 Binding Human % Inhibition at 100 nM” value in series [1] is given as 78%.
For `CCCCC(=O)N(Cc1ccc(-c2ccccc2-c2nnn[nH]2)cc1)[C@H](C(=O)O)C(C)C` [Valsartan, reference compound], the inhibition at 0.1 µM in series [1] was determined as 94%.
On to `CCOc1nc2cccc(CO[N+](=O)[O-])c2n1Cc1ccc(-c2ccccc2-c2nnn[nH]2)cc1` (as salt: nitrate) [Example 14e, 1H-benzimidazole-7-methanol, 2-ethoxy-1-[[2′-(1H-tetrazol-5-yl)[1,1′-biphenyl]-4-yl]methyl]-, nitrate (ester)], for which the melting point was 126 °C (dec.).
With `CC(C)[C@@H](C(=O)O)N(Cc1ccc(-c2ccccc2-c2nnn[nH]2)cc1)C(=O)CCCC(CO[N+](=O)[O-])O[N+](=O)[O-]` (stereo partly drawn) [Example 5b, L-valine, N-[5,6-bis(nitrooxy)-1-oxohexyl]-N-[[2′-(1H-tetrazol-5-yl)[1,1′-biphenyl]-4-yl]methyl]], the melting point is 192 °C (dec.). Besides, in series [1], the inhibition at 0.1 µM was -1%.
On the same counts, the results for `CCCCC(=O)N(Cc1ccc(-c2ccccc2-c2nnn[nH]2)cc1)[C@H](C(=O)N(CCO[N+](=O)[O-])CCO[N+](=O)[O-])C(C)C` [Example 8] are 87 to 90 °C and 4%.
For `CC(C)[C@@H](C(=O)OC(C)(C)C)N(Cc1ccc(-c2ccccc2-c2nnn(C(c3ccccc3)(c3ccccc3)c3ccccc3)n2)cc1)C(=O)CCCCCO[N+](=O)[O-]` [Example 2f, L-valine, N-[6-(nitrooxy)-1-oxohexyl]-N-[[2′-[2-(triphenylmethyl)-2H-tetrazol-5-yl][1,1′-biphenyl]-4-yl]methyl]-, 1,1-dimethylethyl ester], in series [1], the inhibition at 0.1 µM stood at 12%.
Turning to `CCc1nc2c(C)cc(C)nc2n1Cc1ccc(-c2ccccc2S(=O)(=O)NC(=O)C2CC(C)(C)N([O])C(C)(C)C2)cc1` [Example 11, 1-Piperidinyloxy, 4-[[[[4′-[(2-ethyl-5,7-dimethyl-3H-imidazo[4,5-b]pyridin-3-yl)methyl][1,1′-biphenyl]-2-yl]sulfonyl]amino]carbonyl]-2,2,6,6-tetramethyl], the “AT1 Binding Human % Inhibition at 100 nM” value in series [1] is 88%.
As to `CC(C)[C@@H](C(=O)O)N(Cc1ccc(-c2ccccc2-c2nnn[nH]2)cc1)C(=O)CCCCCO[N+](=O)[O-]` [Example 2g, L-valine, N-[6-(nitrooxy)-1-oxohexyl]-N-[[2′-(1H-tetrazol-5-yl)[1,1′-biphenyl]-4-yl]methyl]], the melting point was 196 °C (dec.).
As to `CCCCC(=O)N(CCCO[N+](=O)[O-])Cc1ccc(-c2ccccc2-c2nnn[nH]2)cc1` [Example 7d, Pentanamide, N-[3-(nitrooxy)propyl]-N-[[2′-(1H-tetrazol-5-yl)[1,1′-biphenyl]-4-yl]methyl]], the melting point fell in the range of 54 to 59 °C. Moreover, the inhibition at 0.1 µM in series [1] was 21%.
What is called IC50 is the point on the concentration scale where inhibition reaches its midpoint. A low value points to greater potency. For the compound `CC(C)[C@@H](C(=O)O)N(Cc1ccc(-c2ccccc2-c2nnn[nH]2)cc1)C(=O)CCCCO[N+](=O)[O-]` [Example 1g, L-valine, N-[5-(nitrooxy)-1-oxopentyl]-N-[[2′-(1H-tetrazol-5-yl)[1,1′-biphenyl]-4-yl]methyl]], the melting point was in the range of 108 to 111 °C. Besides, the IC50 in series [1] (human AT1 receptor binding, performed by Cerep) stood at 18 nM. In series [1], the inhibition at 0.1 µM worked out at 86%.
With `CC(C)[C@@H](C(=O)N(C)C)N(Cc1ccc(-c2ccccc2-c2nnn[nH]2)cc1)C(=O)CCCCO[N+](=O)[O-]` [Example 6, Pentanamide, N-[(1S)-1-[(dimethylamino)carbonyl]-2-methylpropyl]-5 (nitrooxy)-N-[[2′-(1H-tetrazol-5-yl)[1,1′-biphenyl]-4-yl]methyl]], the melting point lay within 75 to 78 °C. Also, the inhibition at 0.1 µM in series [1] was 83%.
On the same counts, the results for `CC(C)[C@@H](C(=O)O)N(Cc1ccc(-c2ccccc2-c2nnn[nH]2)cc1)C(=O)CCC(CO[N+](=O)[O-])O[N+](=O)[O-]` (stereo partly drawn) [Example 4b, L-valine, N-[4,5-bis(nitrooxy)-1-oxopentyl]-N-[[2′-(1H-tetrazol-5-yl)[1,1′-biphenyl]-4-yl]methyl]] are 182 °C (dec.) and 2%.
